Results from patent US12646011B2, “Methods and nutritional formulations to increase the efficacy and reduce the side effects of cancer treatment” (UNIVERSITY OF SOUTHERN CALIFORNIA, priority 2009, dated 2026).

Columns and labels:
[1] = test system: breast cancer cells (4T1); test: In vitro fasting (STS) and chemotherapy, MTT survival, 4T1; assay type: cell-based, murine; conditions: for sensitization by serum from fasted mice: versus serum from mice fed ad lib, MTT
Description: To model fasting in vitro, cancer cells were incubated in media containing serum collected from mice either fed ad lib or fasted for 48 hours. […] Because pronounced glucose and growth factor reduction (e.g., the 75% reduction in the growth factor IGF-I) are two key extracellular responses to fasting, cells were incubated in different glucose and serum concentrations based on blood glucose measurements from normally fed and fasted mice (FIG. 31), i.e., incubation in low glucose (0.5 g/L) with low serum (1% FBS), or normal glucose (1.0 and 2.0 g/L for human and murine cell lines respectively) with normal serum (10% FBS) for 24 hours before and also during drug treatment (FIG. 32).
4T1-luc murine breast cancer cells were purchased from SibIech (Brookfield, CT). B16-fluc murine melanoma cells were provided by Noah Craft (UCLA). GL26 murine glioma, U87-MG human glioblastoma cells were provided by Thomas Chen (USC). PC3 and 22RV1 human prostate cancer cells were provided by Pinchas Cohen (UCLA). MCF-7 and […] human breast cancer cells and HeLa human cervical cancer cells were provided by Amy Lee (USC). LOVO human colon cancer cells were provided by Darryl Shibata (USC). NXS2 and Neuro-2a murine neuroblastoma, human ACN and SH-SY5Y neuroblastoma, OVCAR human ovarian carcinoma, MZ-MEL human melanoma, A431 epidermoid carcinoma cells were routinely cultured in the Laboratory of Oncology of Gaslini Institute. 4T1 cells were stably transfected with LC3-GFP, which was a kind gift from Jae Jung at USC, for autophagy studies. All cells were routinely maintained in DMEM 10% FBS at 37° C., 5% CO2. To inhibit autophagy cells were treated with 5 μM chloroquine (CQ) for 48 hours during in vitro STS. To modulate HO-1 activity, 4T1 cells were treated with 10 μM hemin (Sigma) or 20 μM zinc protoporphyrin (ZnPP; Sigma) for 24 hours prior to and 24 hours during chemotherapy treatment.
In vitro chemotherapy was performed by treating cells in medium containing chemotherapy for 24 hours. Optimum drug doses were determined for each individual cell line. For in vivo studies, DXR was injected intravenously via lateral tail veins, and CP was injected intraperitoneally.
Cellular fasting was done by glucose and/or serum restriction which was based on blood glucose measurements in fasted and normally fed mice; the lower level approximated to 0.5 g/L. and the upper level to 2.0 g/L. For human cell lines, normal glucose was considered as 1.0 g/L. Cells were washed twice with PBS before changing to fasting medium.
Cytotoxicity was measured by the ability to reduce methylthiazolyldiphenyl-tetrazolium bromide (MTT). Briefly, MTT was prepared at 5 mg/ml in PBS, diluted to a final concentration of 0.5 mg/ml for assays, and incubated for 3-4 hours at 37° C. […] Survival was presented as percentage of MTT reduction level of treated cells to control cells. Absorbance was read at 570 nm using a microplate reader SpectraMax 250 (Molecular Devices) and SoftMax Pro 3.0 software (Molecular Devices).

B16 melanoma cells [2] = test: Comet assay, B16; assay type: cell-based, murine; conditions: glucose 0.5 vs 2.0 g/L, 1% FBS
Description: (§3) To determine the mechanisms responsible for this STS-dependent sensitization, the effect of low glucose on DNA single and double strand breaks in cancer cells exposed to chemotherapy by the comet assay was studied.
(§4) Cells were diluted to 10^5/ml in culture medium (DMEM/F12 with 10% FBS), and treated with 50 μM DXR for 1 hour at 37° C. Cells were then washed once with ice cold PBS and subject to CometAssay (Trevigen, Inc, Gaithersburg, MD) according to the manufacturer's recommended procedure. Comet images were acquired with a Nikon Eclipse TE300 fluorescent microscope and analyzed with the Comet Score software (TriTek Corp., ver1.5). 100-300 cells were scored for each genotype/treatment group.

B16 melanoma cells [3] = test: Metastatic mouse model of melanoma; assay type: in vivo
From the text: The effect of fasting on chemotherapy was studied in metastatic models generated by intravenous injections of murine breast cancer cells (4T1), melanoma cells (B16), and 2 neuroblastoma cell lines (NXS2 and Neuro-2a) in immunocompetent mice. Fasting potentiated chemotherapy and extended the survival of all mice models of metastatic cancer (FIGS. 24-28). In the metastatic model of melanoma, mice were sacrificed early to determine the effect of STS on metastases. […] For instance, lung metastases were found in 100% vs65% of mice that received DXR under normal feeding and fasting, respectively. In addition, unlike normally fed mice, metastases were not detected in the liver or spleen of fasted mice (FIG. 25).
Body weight was measured immediately before and after fasting.

GL26 glioma cells = test: Comet assay, GL26; assay type: cell-based, murine; conditions: glucose 0.5 vs 2.0 g/L, 1% FBS
Description: as §3, §4

[4] = test system: 17 different cancer cells; test: STS sensitization panel of 17 cancer cell lines, MTT; assay type: cell-based; conditions: 0.5 g/L glucose, 1% FBS versus normal glucose, 10% FBS
Description: (§1) To model fasting in vitro, cancer cells were incubated in media containing serum collected from mice either fed ad lib or fasted for 48 hours. In agreement with results in mice, breast cancer cells (4T1) cultured in medium supplemented with serum from fasted mice were sensitized to both DXR and CP compared to the effect of incubation in serum from mice fed ad lib (FIG. 30). Because pronounced glucose and growth factor reduction (e.g., the 75% reduction in the growth factor IGF-I) are two key extracellular responses to fasting, cells were incubated in different glucose and serum concentrations based on blood glucose measurements from normally fed and fasted mice (FIG. 31), i.e., incubation in low glucose (0.5 g/L) with low serum (1% FBS), or normal glucose (1.0 and 2.0 g/L for human and murine cell lines respectively) with normal serum (10% FBS) for 24 hours before and also during drug treatment (FIG. 32). In agreement with the in vivo studies, glucose and serum restriction sensitized 15 out of 17 different cancer cells lines, including the murine melanoma (B16), glioma (GL26), and breast cancer (4T1) cells to DXR and/or CP (FIGS. 32-34). […]
(§2) Cytotoxicity was measured by the ability to reduce methylthiazolyldiphenyl-tetrazolium bromide (MTT). […] Absorbance was read at 570 nm using a microplate reader SpectraMax 250 (Molecular Devices) and SoftMax Pro 3.0 software (Molecular Devices).

[5] = test system: murine neuroblastoma (NXS2); test: Metastatic mouse model of neuroblastoma NXS2, survival; assay type: in vivo; conditions: 16 mg/Kg
4T1 breast cancer cells = conditions: glucose 0.5 vs 2.0 g/L, 1% FBS
Description: as §3, §4

4T1 breast cancer = conditions: two fasting cycles; 20 days after the last treatment
Description: Short-term starvation (STS), or fasting, was achieved by complete food withdrawal for 48-60 hours with continued access to water. […] Fasting in the glioma model was applied only once due to the unusually rapid tumor growth in the control (ad lib, no chemotherapy) group.
To establish a subcutaneous cancer mouse model, 12 week-old female BALB/c, 12-week-old female and male C57BL/6 mice, and 7-week-old Nude mice were injected with 4T1 breast cancer cells, B16 melanoma and GL26 glioma cells, and ACN human neuroblastoma cells, respectively. For metastatic mouse models of cancer, 12-week-old female BALB/c, 12-week-old female and male C57BL/6 mice were injected intravenously via lateral tail veins with 2×105 4T1, B16, GL26 cells, respectively, and 6-week-old female A/J mice were injected via lateral tail veins with 2×105 NXS2, and 1×10^6 Neuro-2a cells. […] Body weights were determined periodically and tumor size was measured using a digital vernier caliper. Tumor volume was calculated using the following equation: tumor volume (mm3)=(length×width×height)×π/6, where the length, width and height are in mm.
Animals were fasted for a total of 48-60 hours by complete deprivation of food but with free access to water. […] Body weight was measured immediately before and after fasting.

prostate adenocarcinoma = test: PSA level, cases 3 and 7; assay type: in vivo, human
Description: A person who was diagnosed in July of 2000 with bilateral prostate adenocarcinoma, Gleason score 7 and PSA level of 5.8 ng/ml. A prostatectomy performed in September of 2000 led to undetectable levels of PSA until January 2003 when it rose to 1.4 ng/ml. Leuprolide acetate together with bicalutamide and finasteride were prescribed. […] Different drugs including triptorelinpamoate, nilutamide, thalidomide, CP and ketoconazole were utilized to control the disease. In 2007 the patient's PSA level reached 9 ng/ml and new metastases were observed during a bone scan. […] After stopping the chemotherapy treatments, their PSA rose rapidly. DTX at 75 mg/m2 in a 3-weekly cycle was the regimen elected and once again the patient suffered significant side effects (FIG. 5). In June 2008, Chemotherapy stopped. The patient was enrolled in a phase III clinical trial with abiraterone acetate, a drug that can selectively block CYP17, a microsomal enzyme that catalyzes a series of reactions critical to nongonadal androgen biosynthesis (Derek Raghavan and Eric A. Klein J.C.O 2008). […] This time the patient opted to fast prior to chemotherapy. […] In agreement to the patient's experience, blood readouts were consistently stable and remained within normal range throughout the treatments (FIGS. 4A-G). During the last three cycles, besides fasting the patient applied testosterone (cream 1%) for five days prior to chemotherapy.
As a consequence the PSA level along with testosterone level increased dramatically.
A person who was diagnosed in July 1998 with prostate adenocarcinoma, Gleason score 8. […] In 1998, the patient received leuprolide acetate and bicalutamide for the first time. In September 1999, those drugs wore off and they were put on finasteride. […] They started the second cycle with leuprolide acetate and also received High Dose Rate (HDR) brachytherapy and external beam radiation with Intensity Modulated Radiation Therapy (IMRT). Complementary treatment with multiple drugs such as bicalutamide, triptorelinpamoate and nandrolone was applied in order to control the disease. However, their PSA level increased quickly each time the treatment was halted. […] The patient decided to fast 60-66 hours prior to and 8-24 hours followed chemotherapy (Table 3).

melanoma (B16) cells = test: In vitro fasting (STS) and chemotherapy, MTT survival, B16; assay type: cell-based, murine; conditions: rhIGF-I; glucose 0.5 vs 2.0 g/L, 1% FBS; DXR 16 μM
Description: as §1, with “32).” for “32). In agreement with the in vivo studies, glucose and serum restriction sensitized 15 out of 17 different cancer cells lines, including the murine melanoma (B16), glioma (GL26), and breast cancer (4T1) cells to DXR and/or CP (FIGS. 32-34).”
In vitro chemotherapy was performed by treating cells in medium containing chemotherapy for 24 hours. Optimum drug doses were determined for each individual cell line. […]
as §2

[6] = Self-reported side effects after chemotherapy (CTC-based survey); assay type: in vivo, human
Description: Ten cases are described in which patients diagnosed with a variety of malignancies have voluntarily fasted prior to (48-140 hours) and/or following (24-56 hours) chemotherapy. None of these 10 patients, who received an average of 4 cycles of chemotherapy in combination with fasting, reported significant side effects caused by the fasting itself other than hunger. Toxicity was graded based on the Common Toxicity Criteria (CTC) of the National Cancer Institute (NCI) and self-reported side-effects from five patients indicate that fasting may protect against fatigue, weakness, and gastrointestinal side effects.
Self-reported assessments of all 10 patients were obtained to evaluate the severity of the side effects experienced. Since many of the chemo toxic side effects are cumulative, survey data was compared, including all the combined fasting- and non-fasting associated chemotherapy side effects (FIG. 17A). Toxicity was graded based on the Common Toxicity Criteria of National Cancer Institute. Encouragingly, better self-reported health outcomes were addressed by all the patients even though chemo-fasting cycles were mostly carried out in the later portion of the therapy. Nausea, vomiting, diarrhea, abdominal cramps, and mouth sores were virtually absent from the reports of all 10 patients whenever chemo-fasting cycles were administered, whereas at least one of these symptoms was reported by 5 out of the 6 ad lib fed patients (FIG. 17A). The four patients that always fasted in combination with all the chemo-treatments reported low severity for the majority of the side effects (FIGS. 12, 13, 14, 16). Only mild weakness and hair loss were reported by multiple patients. For the 6 patients that received chemotherapy in association with both, fasting or ad lib diet, the severity of the self-reported side effects was determined by considering only the two closest cycle of chemotherapy in which the patient had fasted or not. There was a general and major reduction in the severity of many of the self-reported side effects in combination with fasting (FIG. 17B).

[7] = case 7, fasting 60-66 h prior, 8-24 h after

C=CC1=C(C)c2cc3[n-]c(cc4nc(cc5[n-]c(cc1n2)c(C)c5C=C)C(C)=C4CCC(=O)O)c(CCC(=O)O)c3C.[Zn+2] [ZnPP, zinc protoporphyrin]
sensitivity to chemotherapy (CP) ([1]; HO-1 inhibitor, 20 μM, 24 h before and 24 h during CP): sensitized cancer cells to chemotherapy

CCN(CC)CCCC(C)Nc1ccnc2cc(Cl)ccc12 (stereo not shown) [chloroquine]
cell death on inhibition of autophagy during STS ([1]; 5 μM, 48 hours, glucose restriction in low serum): further increased cell death

COc1cccc2c1C(=O)c1c(O)c3c(c(O)c1C2=O)C[C@@](O)(C(=O)CO)C[C@@H]3O[C@H]1C[C@H](N)[C@H](O)[C@H](C)O1 [DXR, doxorubicin]
sensitization by serum from fasted mice [1]: sensitized
DNA damage when combined with STS (B16 melanoma cells [2]): synergistically increased DNA damage
metastases in the liver or spleen (B16 melanoma cells [3]; fasted mice): not detected
mice with lung metastases (B16 melanoma cells [3]; normal feeding): 100%
DNA damage when combined with STS (GL26 glioma cells): synergistically increased DNA damage
DNA damage when combined with STS (GL26 glioma cells; listed as doxorubicin): additive
cancer cell lines sensitized by STS [4]: 15 out of 17
Long-term survival (over 180 days) ([5]; 2 cycles of fasting): 42%
mortality ([5]; ad lib group): 100%

hemin
fasting-dependent sensitization to chemotherapy (CP) ([1]; HO-1 inducer, 10 μM, 24 h before and 24 h during CP): partially reversed

O=P1(N(CCCl)CCCl)NCCCO1 (stereo not shown) [CP, cyclophosphamide]
sensitization by serum from fasted mice [1]: sensitized
DNA damage when combined with STS (4T1 breast cancer cells): synergistically increased DNA damage
tumor size relative to CP treatment alone group (4T1 breast cancer): less than half

Bevacizumab: Bevacizumab added into the DTX treatment
PSA (prostate adenocarcinoma; case 3, added to weekly DTX treatment): dropped significantly

IGF-I: rhIGF-I, growth factor added during glucose restriction
effect on STS-dependent sensitization to DXR ([1]; rhIGF-I, glucose 0.5 vs 2.0 g/L, 1% FBS, DXR 16 μM): reverses the sensitization
effect on STS-dependent sensitization to DXR (melanoma (B16) cells): reverses the sensitization

CC(=O)O[C@@]12CO[C@@H]1C[C@H](O)[C@@]1(C)C(=O)[C@H](O)C3=C(C)[C@@H](OC(=O)[C@H](O)[C@@H](NC(=O)OC(C)(C)C)c4ccccc4)C[C@@](O)([C@@H](OC(=O)c4ccccc4)[C@H]21)C3(C)C [DTX, docetaxel]
self-reported side effects ([6]; case 3, 75 mg/m2 with fasting, versus previous ad-lib cycles): considerably lower side effects
self-reported side effects ([6]; case 3, chemotherapy cycles without fasting): fatigue, weakness, metallic taste, dizziness, forgetfulness, short-term memory impairment and peripheral neuropathy
self-reported side effects [6, 7]: almost non-existent except for mild vibratory sensation in their feet
PSA level (prostate adenocarcinoma; case 3, 25 mg/m2 weekly, no fasting): 40.6 ng/mL
PSA after 3 cycles of chemotherapy with fasting (prostate adenocarcinoma; case 3, reduced from 34.2, testosterone cream 1% applied before chemotherapy): 6.43 ng/mL
PSA level (prostate adenocarcinoma; case 3, upon restarting chemo-fasting treatments, 75 mg/m2): dropped immediately
PSA levels throughout the cycles (prostate adenocarcinoma; [7]): consistent decreasing trend
